From patent US20250313563A1, “GLYCOGEN SYNTHASE KINASE 3 INHIBITORS AND USES THEREOF” (The Broad Institute, Inc., priority 2022, published 2025)
Read-outs that look alike come from different tables or passages of the source.

Key:
[1] = target: GSK3α (GST-full length GSK3α) (Homo sapiens (Human), UniProt P49840); test: GSK3α TR-FRET kinase assay; assay type: biochemical
Summary of the method: (§1)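 IC50s came from the normalized 665/615 TR-FRET ratio after Tb-anti-pSer641 antibody and streptavidin-d2 detection of phosphorylated biotin-glycogen synthase peptide (200 nM). ATP was 4 μM for GSK3α, 2 μM for GSK3b, or 1 mM; 1 nM enzyme, 100 min, ambient, pH 7.5, after 30-min compound preincubation.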

[2] = target: GSK3b (GST-full length GSK3b) (Homo sapiens (Human), UniProt P49841); test: GSK3b TR-FRET kinase assay; assay type: biochemical
Summary of the method: as §1

[3] = 1 nM GSK3α, 4 μM ATP, 30 minute preincubation, Table 16, read-out: GSK3-A TR-FRET BIOCHEMICAL (TR-FRET)
[4] = 1 nM GSK3b, 2 μM ATP, 30 minute preincubation, Table 16, read-out: GSK3-B TR-FRET BIOCHEMICAL (TR-FRET)
[5] = 1 nM GSK3α, 4 μM ATP, 30 minute preincubation, Table 16, read-out: GSK3-A TR-FRET BIOCHEMICAL (TR-FRET), IC50
[6] = 1 nM GSK3b, 2 μM ATP, 30 minute preincubation, Table 16, read-out: GSK3-B TR-FRET BIOCHEMICAL (TR-FRET), IC50
[7] = 1 nM GSK3α, 4 μM ATP, 30 minute preincubation, read-out: GSK3-A TR-FRET BIOCHEMICAL (TR-FRET), IC50
[8] = 1 nM GSK3b, 2 μM ATP, 30 minute preincubation, read-out: GSK3-B TR-FRET BIOCHEMICAL (TR-FRET), IC50

GSK3b (GST-full length GSK3b), sequence (P49841 whole entry): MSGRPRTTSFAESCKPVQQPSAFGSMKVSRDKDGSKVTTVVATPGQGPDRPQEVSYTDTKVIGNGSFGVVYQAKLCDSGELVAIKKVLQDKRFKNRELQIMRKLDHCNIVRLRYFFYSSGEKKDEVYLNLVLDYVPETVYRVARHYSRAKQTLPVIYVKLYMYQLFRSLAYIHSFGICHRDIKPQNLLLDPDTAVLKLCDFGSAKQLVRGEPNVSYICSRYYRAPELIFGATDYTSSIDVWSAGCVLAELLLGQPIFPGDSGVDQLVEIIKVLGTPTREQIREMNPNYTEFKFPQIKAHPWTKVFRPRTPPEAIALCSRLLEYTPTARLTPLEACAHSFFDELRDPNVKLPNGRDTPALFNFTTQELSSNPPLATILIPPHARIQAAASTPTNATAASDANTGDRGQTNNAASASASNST
GSK3α (GST-full length GSK3α), sequence (P49840 whole entry): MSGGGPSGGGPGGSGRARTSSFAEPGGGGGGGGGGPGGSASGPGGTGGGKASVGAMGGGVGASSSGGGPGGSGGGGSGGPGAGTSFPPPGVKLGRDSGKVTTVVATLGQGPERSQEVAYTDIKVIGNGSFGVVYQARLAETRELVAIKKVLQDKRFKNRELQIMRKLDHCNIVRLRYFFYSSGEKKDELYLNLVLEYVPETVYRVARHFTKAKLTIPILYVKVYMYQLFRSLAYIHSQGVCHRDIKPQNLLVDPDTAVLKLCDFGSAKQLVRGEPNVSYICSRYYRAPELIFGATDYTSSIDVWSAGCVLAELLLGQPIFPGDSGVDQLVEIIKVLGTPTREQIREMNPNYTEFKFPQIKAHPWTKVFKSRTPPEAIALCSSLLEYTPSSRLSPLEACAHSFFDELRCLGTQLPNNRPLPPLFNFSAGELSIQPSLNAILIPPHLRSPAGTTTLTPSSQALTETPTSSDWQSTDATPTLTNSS

IC50 [1, 5] [nM]	IC50 [2, 6] [nM]	IC50 [1, 7] [nM]	IC50 [2, 8] [nM]	SMILES	other results
100 to 1000	1000 to 5000	–	–	CC1(C)CC(=O)C2=C(C1)Nc1n[nH]cc1[C@]21CCO[C@@H](C(C)(C)C)C1 [Compound 912106]	–
> 5000	> 5000	–	–	CC1(C)CC(=O)C2=C(C1)Nc1n[nH]cc1[C@@]21CCO[C@H](C(C)(C)C)C1 [Compound 912107]	–
1000 to 5000	1000 to 5000	–	–	CC1(C)CC(=O)C2=C(C1)Nc1n[nH]cc1[C@@]21CCO[C@@H](C(C)(C)C)C1 [Compound 912113]	–
–	–	> 5000	> 5000	CC1(C)CC(=O)C2=C(C1)Nc1n[nH]cc1C21CC2(COC2)C1 [Compound 912168]	–
≤ 100	≤ 100	–	–	CCC1(c2cccc(S(=O)(=O)C(C)C)c2)C2=C(CC(C)(C)CC2=O)Nc2n[nH]cc21 (centres unmarked) [Compound 912169]	–
1000 to 5000	> 5000	–	–	CC1(C)CC(=O)C2=C(C1)Nc1n[nH]cc1C21CS(=O)(=O)C1 [Compound 912170]	–
–	–	> 5000	> 5000	CC[C@@]1(c2cccc(C(F)(F)F)c2)C2=C(CCN(CC(F)(F)F)C2=O)Nc2n[nH]cc21 [Compound 912205]	–
–	–	≤ 100	100 to 1000	CCC1(c2cccc(C(F)(F)F)c2)C2=C(CCN(CC(F)(F)F)C2=O)Nc2n[nH]cc21 (centres unmarked) [Compound 912206]	–
–	–	1000 to 5000	> 5000	CC1(C)CC(=O)C2=C(C1)Nc1n[nH]cc1C21CCC2(CCC(=O)N2C(=O)OC(C)(C)C)CC1 (centres unmarked) [Compound 912217]	–
–	–	100 to 1000	1000 to 5000	CCC1(c2cccc(C(F)(F)F)c2)C2=C(CCNC2=O)Nc2n[nH]cc21 (centres unmarked) [Compound 912622]	–
–	–	> 5000	> 5000	CC[C@]1(c2cccc(C(F)(F)F)c2)C2=C(CCNC2=O)Nc2n[nH]cc21 [Compound 912668]	–
–	–	100 to 1000	1000 to 5000	CC1(C)CC(=O)C2=C(C1)Nc1n[nH]cc1C21COC2(CN(S(=O)(=O)c3ccccc3)C2)C1 (centres unmarked) [Compound 913002]	–

The remaining lines, values behind:

SMILES	IC50 [1, 5] [nM]	IC50 [2, 6] [nM]	IC50 [1, 7] [nM]	IC50 [2, 8] [nM]	other results
O=C1C2=C(Nc3n[nH]cc3C23CCOCC3)[C@H]2CC[C@@H]1C2 [Compound 912080]	–	–	–	–	IC50 [1, 3]: 100 to 1000 nM; IC50 [2, 4]: 100 to 1000 nM
O=C1C2=C(Nc3n[nH]cc3C23CCOCC3)[C@@H]2CC[C@H]1C2 [Compound 912081]	–	–	–	–	IC50 [1, 3]: 100 to 1000 nM; IC50 [2, 4]: 1000 to 5000 nM
CC1(C)CC(=O)C2=C(C1)Nc1n[nH]cc1C21CCC(c2ccccc2)CC1 (centres unmarked) [Compound 912084]	–	–	–	–	IC50 [1, 3]: ≤ 100 nM; IC50 [2, 4]: ≤ 100 nM
CCC1(c2cccc(C3CCOC(C)(C)C3)c2)C2=C(CC(C)(C)CC2=O)Nc2n[nH]cc21 (centres unmarked) [Compound 912088]	100 to 1000	> 5000	–	–	–
CCC1(c2cccc(C3CCOC(C)(C)C3)c2)C2=C(CC(C)(C)CC2=O)Nc2n[nH]cc21 (centres unmarked) [Compound 912089]	100 to 1000	100 to 1000	–	–	–
CCC1(c2cccc(C3CCOC(C)(C)C3)c2)C2=C(CC(C)(C)CC2=O)Nc2n[nH]cc21 (centres unmarked) [Compound 912090]	100 to 1000	> 5000	–	–	–
CC[C@]1(c2cccc([C@@H]3CCOC(C)(C)C3)c2)C2=C(CC(C)(C)CC2=O)Nc2n[nH]cc21 [Compound 912091]	> 5000	> 5000	–	–	–
CC1(C)CC(=O)C2=C(C1)Nc1n[nH]cc1C21CCN(S(C)(=O)=O)C1 (centres unmarked) [Compound 912092]	–	–	–	–	IC50 [1, 3]: ≤ 100 nM; IC50 [2, 4]: ≤ 100 nM
CC1(C)CC(=O)C2=C(C1)Nc1n[nH]cc1C21COCCOC1 [Compound 912094]	1000 to 5000	> 5000	–	–	–
CC[C@@]1(c2cccc(C(F)(F)F)c2)C2=C(C[C@H](C)NC2=O)Nc2n[nH]cc21 [Compound 912097]	–	–	100 to 1000	> 5000	–
CC[C@]1(c2cccc(C(F)(F)F)c2)C2=C(C[C@H](C)NC2=O)Nc2n[nH]cc21 [Compound 912099]	–	–	> 5000	> 5000	–
CCC1(c2cccc(C(F)(F)F)c2)C2=C(Nc3n[nH]cc31)C(C)(C)NC2=O (centres unmarked) [Compound 912104]	–	–	–	–	IC50 [1, 3]: ≤ 100 nM; IC50 [2, 4]: 100 to 1000 nM
CC1(C)CC(=O)C2=C(C1)Nc1n[nH]cc1C21CCCCC1=O (centres unmarked) [Compound 912105]	> 5000	> 5000	–	–	–
CC1(C)CC(=O)C2=C(C1)Nc1n[nH]cc1[C@]21CCO[C@H](C(C)(C)C)C1 [Compound 912112]	–	–	–	–	IC50 [1, 3]: 100 to 1000 nM; IC50 [2, 4]: 100 to 1000 nM
CCC1(c2cccc(S(=O)(=O)C3CC3)c2)C2=C(CC(C)(C)CC2=O)Nc2n[nH]cc21 (centres unmarked) [Compound 912171]	–	–	–	–	IC50 ([1]; read-out: GSK3-A (TR-FRET 1 mM ATP), GMean, IC50, 1 mM ATP, geometric mean): ≤ 100 nM; IC50 ([2]; read-out: GSK3-B (TR-FRET 1 mM ATP), GMean, IC50, 1 mM ATP, geometric mean): 100 to 1000 nM
COC[C@H]1C[C@]2(C1)C1=C(CC(C)(C)CC1=O)Nc1n[nH]cc12 [Compound 912173]	–	–	–	–	IC50 [1, 3]: 100 to 1000 nM; IC50 [2, 4]: 100 to 1000 nM
